# Assay results from patent US11225505B2, “Antimicrobial polymyxin derivative compounds” (MONASH UNIVERSITY, priority 2015, dated 2022).
# Where two headings read alike, the source gives them in different places. Where a SMILES comes first, the peptide text is derived from it. Bridges are numbered along the chain shown (N, C = ends). [ ]: non-standard residue; d: D form. The star is where a group is joined. Nicotinoyl(6-CF3) = O=C(c1ccc(C(F)(F)F)nc1)*; X67 = O=C(c1cc(Br)sc1Br)*; X25 = O=C(c1ccnc(Cl)c1)*; Dab = NCC[C@H](N)C(=O)O; Abu = CC[C@H](N)C(=O)O; Dap = NC[C@H](N)C(=O)O
# What was measured:
# Assay type in all cases: cell-based
# [1] = test system: Acinetobacter baumannii FADDI-AB030; assay: microbe, parasite or virus in culture; conditions: for MIC: Acinetobacter baumannii
# Method: MICs of the lipopeptides (trifluoroacetic acid salt, TFA) were determined by broth microdilution in cation-adjusted Mueller-Hinton broth (CAMHB) (Oxoid Australia, Thebarton, SA, Australia) according to the Clinical and Laboratory Standards Institute protocol (Clinical and Laboratory Standards Institute, Performance standards for antimicrobial susceptibility testing; twentyforth informational supplement M100-S24. Wayne, Pa., 2014). Polymyxin B sulphate was employed as the control. […] The following isolates were examined: Pseudomonas aeruginosa ATCC 27853, Pseudomonas aeruginosa FADDI-PA022*, Pseudomonas aeruginosa FADDI-PA01*, Pseudomonas aeruginosa FADDI-PA038*, Acinetobacter baumannii FADDI-AB034*, Acinetobacter baumannii ATCC 17978, Acinetobacter baumannii FADDI-AB030*, Klebsiella pneumoniae FADDI-KP032, Klebsiella pneumoniae FADDI-KP022*, Klebsiella pneumoniae Kp BM1*, Enterobacter cloacae FADDI-EC006, Enterobacter cloacae FADDI-EC001, and Enterobacter cloacae FADDI-EC003 (* Multi drug-resistant clinical isolates, § New Delhi Metallo-beta-lactamase-1 (NDM-1) producing). The results are illustrated in Tables 4 and 5. […]
# [2] = test system: Acinetobacter baumannii ATCC 17978; conditions: ATCC 17978
# Method: (§1) MICs of the lipopeptides (trifluoroacetic acid salt, TFA) were determined by broth microdilution in cation-adjusted Mueller-Hinton broth (CAMHB) (Oxoid Australia, Thebarton, SA, Australia) according to the Clinical and Laboratory Standards Institute protocol (Clinical and Laboratory Standards Institute, Performance standards for antimicrobial susceptibility testing; twentyforth informational supplement M100-S24. Wayne, Pa., 2014). Polymyxin B sulphate was employed as the control. Antimicrobial activity of Compounds 1-104 against polymyxin-susceptible Gram-negative bacteria was examined. The following isolates were examined: Pseudomonas aeruginosa ATCC 27853, Pseudomonas aeruginosa FADDI-PA022*, Pseudomonas aeruginosa FADDI-PA01*, Pseudomonas aeruginosa FADDI-PA038*, Acinetobacter baumannii FADDI-AB034*, Acinetobacter baumannii ATCC 17978, Acinetobacter baumannii FADDI-AB030*, Klebsiella pneumoniae FADDI-KP032, Klebsiella pneumoniae FADDI-KP022*, Klebsiella pneumoniae Kp BM1*, Enterobacter cloacae FADDI-EC006, Enterobacter cloacae FADDI-EC001, and Enterobacter cloacae FADDI-EC003 (* Multi drug-resistant clinical isolates, § New Delhi Metallo-beta-lactamase-1 (NDM-1) producing). The results are illustrated in Tables 4 and 5.
# [3] = test system: Acinetobacter baumannii FADDI-AB034; conditions: FADDI-AB034
# Method: as §1
# [4] = test system: Enterobacter cloacae FADDI-EC001; conditions: FADDI-EC001
# Method: as §1
# [5] = test system: Enterobacter cloacae FADDI-EC003; conditions: FADDI-EC003
# Method: as §1
# [6] = test system: Enterobacter cloacae FADDI-EC006; conditions: FADDI-EC006
# Method: as §1
# [7] = test system: Klebsiella pneumoniae FADDI-KP022; conditions: FADDI-KP022
# Method: as §1
# [8] = test system: Klebsiella pneumoniae FADDI-KP032; conditions: FADDI-KP032
# Method: as §1
# [9] = test system: Klebsiella pneumoniae Kp BM1; conditions: Kp BM1
# Method: as §1
# [10] = test system: Pseudomonas aeruginosa ATCC 27853; conditions: ATCC 27853
# Method: as §1
# [11] = test system: Pseudomonas aeruginosa FADDI-PA01; conditions: FADDI-
# Method: as §1
# [12] = test system: Pseudomonas aeruginosa FADDI-PA022; conditions: FADDI-PA022
# Method: as §1
# [13] = test system: Pseudomonas aeruginosa FADDI-PA038; conditions: FADDI-PA038
# Method: as §1
# [14] = FADDIAB030, clinically used antibiotics, clinical isolate A. baumannii FADDI-AB030, read-out: minimum inhibitory concentration
molecule,measurement,setting,value
"C[C@H]1c2cccc(O)c2C(=O)C2=C(O)[C@]3(O)C(=O)C(C(N)=O)=C(O)[C@@H](N(C)C)[C@@H]3[C@@H](O)[C@@H]21 [Doxycycline, reference compound]",MIC,[1]; [14],> 8 µg/mL
CC[C@@H]1NC(=O)[C@@H](CC(C)C)NC(=O)[C@H](CCN)NC(=O)[C@@H](NC(=O)[C@H](CN)NC(=O)[C@@H](NC(=O)[C@H](CCN)NC(=O)c2ccc(C(F)(F)F)nc2)[C@@H](C)O)CCNC(=O)[C@H]([C@@H](C)O)NC(=O)[C@H](CCN)NC(=O)[C@H](CCN)NC1=O [Compound 3] ({Nicotinoyl(6-CF3)}-[Dab]T[Dap][Dab][Dab][dL][Abu][Dab][Dab]T; lactam 4-C),Minimum inhibitory concentration,[2],1 µg/mL
same,Minimum inhibitory concentration,[3],1 µg/mL
same,Minimum inhibitory concentration,[4],0.5 µg/mL
same,Minimum inhibitory concentration,[5],0.25 µg/mL
same,Minimum inhibitory concentration,[6],1 µg/mL
same,Minimum inhibitory concentration,[7],<0.125 µg/mL
same,Minimum inhibitory concentration,[8],0.25 µg/mL
same,Minimum inhibitory concentration,[9],1 µg/mL
same,Minimum inhibitory concentration,[10],0.5 µg/mL
same,Minimum inhibitory concentration,[11],0.5 µg/mL
same,Minimum inhibitory concentration,[12],1 µg/mL
same,Minimum inhibitory concentration,[13],1 µg/mL
same,Minimum inhibitory concentration,[1]; FADDI-AB030,1 µg/mL
"COc1c(N2CCNC(C)C2)c(F)cc2c(=O)c(C(=O)O)cn(C3CC3)c12 (stereo not drawn) [Gatifloxacin, reference compound]",MIC,[1]; [14],> 4 µg/mL
"CN(C)[C@@H]1C(O)=C(C(N)=O)C(=O)[C@@]2(O)C(O)=C3C(=O)c4c(O)cccc4[C@@](C)(O)[C@H]3C[C@@H]12 [Tetracycline, reference compound]",MIC,[1]; [14],> 8 µg/mL
Gentamicin [reference compound],Minimum inhibitory concentration,"[1]; clinically used antibiotics, clinical isolate A. baumannii FADDI-AB030",>8 µg/mL
CC[C@@H]1NC(=O)[C@@H](CC(C)C)NC(=O)[C@H](CCN)NC(=O)[C@@H](NC(=O)[C@H](CN)NC(=O)[C@@H](NC(=O)[C@H](CCN)NC(=O)c2cc(Br)sc2Br)[C@@H](C)O)CCNC(=O)[C@H]([C@@H](C)O)NC(=O)[C@H](CCN)NC(=O)[C@H](CCN)NC1=O [Compound 76] (X67-[Dab]T[Dap][Dab][Dab][dL][Abu][Dab][Dab]T; lactam 4-C),Minimum inhibitory concentration,[2],<0.125 µg/mL
same,Minimum inhibitory concentration,[3],<0.125 µg/mL
same,Minimum inhibitory concentration,[4],0.25 µg/mL
same,Minimum inhibitory concentration,[5],<0.125 µg/mL
same,Minimum inhibitory concentration,[6],<0.125 µg/mL
same,Minimum inhibitory concentration,[7],<0.125 µg/mL
same,Minimum inhibitory concentration,[8],<0.125 µg/mL
same,Minimum inhibitory concentration,[9],<0.125 µg/mL
same,Minimum inhibitory concentration,[10],0.25 µg/mL
same,Minimum inhibitory concentration,[11],0.25 µg/mL
same,Minimum inhibitory concentration,[12],0.25 µg/mL
same,Minimum inhibitory concentration,[13],0.5 µg/mL
same,Minimum inhibitory concentration,[1]; FADDI-AB030,0.25 µg/mL
CC[C@@H]1NC(=O)[C@@H](CC(C)C)NC(=O)[C@H](CCN)NC(=O)[C@@H](NC(=O)[C@H](CN)NC(=O)[C@@H](NC(=O)[C@H](CCN)NC(=O)c2ccnc(Cl)c2)[C@@H](C)O)CCNC(=O)[C@H]([C@@H](C)O)NC(=O)[C@H](CCN)NC(=O)[C@H](CCN)NC1=O [Compound 24] (X25-[Dab]T[Dap][Dab][Dab][dL][Abu][Dab][Dab]T; lactam 4-C),Minimum inhibitory concentration,[2],2 µg/mL
same,Minimum inhibitory concentration,[3],1 µg/mL
same,Minimum inhibitory concentration,[4],0.25 µg/mL
same,Minimum inhibitory concentration,[5],0.25 µg/mL
same,Minimum inhibitory concentration,[6],4 µg/mL
same,Minimum inhibitory concentration,[7],<0.125 µg/mL
same,Minimum inhibitory concentration,[8],0.5 µg/mL
same,Minimum inhibitory concentration,[9],0.25 µg/mL
same,Minimum inhibitory concentration,[10],0.25 µg/mL
same,Minimum inhibitory concentration,[11],0.25 µg/mL
same,Minimum inhibitory concentration,[12],0.25 µg/mL
same,Minimum inhibitory concentration,[13],1 µg/mL
same,Minimum inhibitory concentration,[1]; FADDI-AB030,1 µg/mL
"CO/N=C(\C(=O)N[C@@H]1C(=O)N2C(C(=O)[O-])=C(C[N+]3(C)CCCC3)CS[C@H]12)c1csc(N)n1 [Cefepime, reference compound]",MIC,[1]; [14],> 16 µg/mL
"NC[C@H]1O[C@H](O[C@H]2[C@H](O)[C@@H](O[C@H]3O[C@H](CO)[C@@H](O)[C@H](N)[C@H]3O)[C@H](N)C[C@@H]2N)[C@H](N)C[C@@H]1O [Tobramycin, reference compound]",MIC,[1]; [14],> 16 µg/mL
"CN(C)c1cc(NC(=O)CNC(C)(C)C)c(O)c2c1C[C@H]1C[C@H]3[C@H](N(C)C)C(O)=C(C(N)=O)C(=O)[C@@]3(O)C(O)=C1C2=O [Tigecycline, reference compound]",MIC,"[1]; FADDIAB030, read-out: minimum inhibitory concentration",4 µg/mL
"C[C@H]1NCc2cc(-c3ccc4c(=O)c(C(=O)O)cn(C5CC5)c4c3OC(F)F)ccc21 [Garenoxacin, reference compound]",MIC,[1]; [14],> 4 µg/mL
"CCN1CCN(C(=O)N[C@@H](C(=O)N[C@@H]2C(=O)N3[C@@H]2SC(C)(C)[C@@H]3C(=O)O)c2ccccc2)C(=O)C1=O [Piperacillin, reference compound]",MIC,[1]; [14],> 64 µg/mL
"COc1c(N2C[C@@H]3CCCN[C@@H]3C2)c(F)cc2c(=O)c(C(=O)O)cn(C3CC3)c12 [Moxifloxacin, reference compound]",MIC,[1]; [14],> 4 µg/mL
"C[C@@H](O)[C@H]1C(=O)N2C(C(=O)O)=C(S[C@@H]3CN[C@H](C(=O)N(C)C)C3)[C@H](C)[C@H]12 [Meropenem, reference compound]",MIC,[1]; [14],> 8 µg/mL
"C[C@H]1COc2c(N3CCN(C)CC3)c(F)cc3c(=O)c(C(=O)O)cn1c23 [Levofloxacin, reference compound]",MIC,[1]; [14],> 4 µg/mL
"C[C@@H](O)[C@H]1C(=O)N2C(C(=O)O)=C(S[C@@H]3CN[C@H](CNS(N)(=O)=O)C3)[C@H](C)[C@H]12 [Doripenem, reference compound]",MIC,[1]; [14],> 8 µg/mL
"CO/N=C(\C(=O)N[C@@H]1C(=O)N2C(C(=O)O)=C(CSc3nc(=O)c(=O)[nH]n3C)CS[C@H]12)c1csc(N)n1 [Ceftriaxone, reference compound]",MIC,[1]; [14],> 32 µg/mL
"CC1(C)S[C@@H]2[C@H](NC(=O)[C@H](N)c3ccccc3)C(=O)N2[C@H]1C(=O)O [Ampicillin, reference compound]",MIC,[1]; [14],> 16 µg/mL
"CC(C)(O/N=C(\C(=O)N[C@@H]1C(=O)N2C(C(=O)[O-])=C(C[n+]3ccccc3)CS[C@H]12)c1csc(N)n1)C(=O)O [Ceftazidime, reference compound]",MIC,[1]; [14],> 16 µg/mL
"C[C@@H](O)[C@H]1C(=O)N2C(C(=O)O)=C(S[C@@H]3CN[C@H](C(=O)Nc4cccc(C(=O)O)c4)C3)[C@H](C)[C@H]12 [Ertapenem, reference compound]",MIC,[1]; [14],> 8 µg/mL
"C[C@H]1[C@H](NC(=O)/C(=N\OC(C)(C)C(=O)O)c2csc(N)n2)C(=O)N1S(=O)(=O)O [Aztreonam, reference compound]",MIC,[1]; [14],> 16 µg/mL
"CN(C)c1ccc(O)c2c1C[C@H]1C[C@H]3[C@H](N(C)C)C(O)=C(C(N)=O)C(=O)[C@@]3(O)C(O)=C1C2=O [Minocycline, reference compound]",MIC,[1]; [14],> 8 µg/mL
"NCC[C@H](O)C(=O)N[C@@H]1C[C@H](N)[C@@H](O[C@H]2O[C@H](CN)[C@@H](O)[C@H](O)[C@H]2O)[C@H](O)[C@H]1O[C@H]1O[C@H](CO)[C@@H](O)[C@H](N)[C@H]1O [Amikacin, reference compound]",MIC,[1]; [14],> 32 µg/mL
"C[C@@H](O)[C@H]1C(=O)N2C(C(=O)O)=C(SCCN=CN)C[C@H]12 [Imipenem, reference compound]",MIC,[1]; [14],> 8 µg/mL
